Measured values reported in US20090111759A1, “Synergistic Combination of Glutamate-and Gaba-Gated Chloride Agonist Pesticide and at Least One Vitamin E, Niacin, or Derivatives Thereof” (priority 2006, published 2009).
Like-named read-outs stand apart in the source and are kept apart here.

How the values were obtained:
[1] = tested on: houseflies; test: Dorsal application of Abamectin and nicotinic acid derivatives, mortality (Example 21); format: in vivo, housefly; settings: combination of Abamectin and the nicotinic acid derivative; 2 μl dorsally; Colby
Protocol: (§1) Various solutions of nicotinic acid derivatives, Abamectin and combinations of nicotinic acid derivatives and Abamectin were applied dorsally on houseflies. On each housefly 2 μl test solution was applied. The mortality of the treatments was recorded. The mortality results were analysed according to Colby.

[2] = tested on: cat fleas (Ctenocephalides felis felis) adult; test: In vitro contact test on adult fleas (Example 25)
[3] = tested on: cat fleas (Ctenocephalides felis felis) larvae; test: In vitro contact test on flea larvae (Example 25)
[4] = tested on: cat fleas (Ctenocephalides felis felis) larvae; test: In vitro larvae test based on systemic activity (Example 25)
[5] = tested on: Haemonchus contortus; test: Larvae feeding inhibition study (Example 23); settings: for LFI-50 H. con.: larvae feeding inhibition 50%; for LFI-50 H. con. / LFI-96 H. con. / LFI-99 H. con.: Ivermectin resistant isolate, mixtures: based on concentration of IVM or DOR; for LFI-96 H. con.: larvae feeding inhibition 96%; for LFI-99 H. con.: larvae feeding inhibition 99%
Text: (§2) The calculations done according to Wadley and shown in Table 23 indicate that synergistic action of Ivermectin and tocopheryl acetate and Doramectin and tocopheryl acetate was pre-sent in the larvae feed inhibition study. The synergistic action of Ivermectin and tocepheryl acetate in the H. contortus experiment is of particular interest because the H. contortus iso-late used was Ivermectin resistant.

[6] = tested on: Teladorsagia (Ostertagia) circumcincta; test: Larvae feeding inhibition study (Example 23); settings: for LFI-50 T. cir.: larvae feeding inhibition 50%; for LFI-50 T. cir. / LFI-96 T. cir. / LFI-99 T. cir.: mixtures: based on concentration of IVM or DOR; for LFI-96 T. cir.: larvae feeding inhibition 96%; for LFI-99 T. cir.: larvae feeding inhibition 99%
Text: as §2

[7] = tested on: Trichostrongylus colubriformis; test: Larvae feeding inhibition study (Example 23); settings: for LFI-50 T. col.: larvae feeding inhibition 50%; for LFI-50 T. col. / LFI-96 T. col. / LFI-99 T. col.: mixtures: based on concentration of IVM or DOR; for LFI-96 T. col.: larvae feeding inhibition 96%; for LFI-99 T. col.: larvae feeding inhibition 99%
Text: as §2

[8] = tested on: Dysdercus cingulatus nymphs; format: in vivo
Protocol: Abamectin, Ivermectin and tocopherol solutions in acetone were prepared. Mixed solutions of either Abamectin or Ivermectin and tocopherol were also prepared. Nymphs of Dysdercus cingulatus were treated topically with Abamectin acetone solution (20,000 ng/nymph), Ivermectin acetone solution (20,000 ng/nymph), a tocopherol acetone solution (20,000 ng/nymph) or a solution containing Abamectin and tocopherol or Ivermectin and tocopherol in the ratio 1:3 (20,000 ng total/nymph). The solutions were applied dorsally on the nymphs.
The Dysdercus cingulatus mortality was followed over time and recorded. Log time-mortality curves were constructed for the Abamectin and Ivermectin solutions and for the mixtures with tocopherol. An LT50 value was calculated for each application.

[9] = tested on: Onchocerca lienalis microfilariae; test: Microfilariae mobility test (Example 26)
[10] = tested on: Dysdercus cingulatus nymphs; format: in vivo; remark: listed apart in the source
Protocol: (§3) A range of Ivermectin solutions in acetone was prepared. Similarly, a range of tocopherol solutions was prepared. Mixed solutions of Ivermectin and tocopherol in acetone were prepared as well. Nymphs of Dysdercus cingulatus were treated topically with either an Ivermectin acetone solution (2 μl), a tocopherol acetone solution (2 μl) or mixed solutions (2 μl).
The mortality was recorded after 24 and 48 h. The results were evaluated by the Colby-method.

[11] = tested on: houseflies; test: Dorsal application of Abamectin and Vitamin E derivatives, mortality (Example 18); format: in vivo, housefly; settings: combination of Abamectin and the Vitamin E derivative; 2 μl dorsally; Colby
Protocol: as §1, with “Vitamin E” for “nicotinic acid”, “Colby. The synergistic activity of Abamectin and various Vitamin E derivatives on houseflies is illustrated in table 18.” for “Colby.”

[12] = tested on: nymphs of Dysdercus cingulatus; test: Dorsal application of Abamectin and Vitamin E derivatives, mortality (Example 19); format: in vivo; settings: combination of Abamectin and the Vitamin E derivative; 2 μl dorsally; Colby
Protocol: Various solutions of Vitamin E derivatives, Abamectin and combinations of Vitamin E derivatives and Abamectin were applied dorsally on nymphs of Dysdercus cingulatus. On each Dysdercus cingulatus 2 μl test solution was applied. The mortality of the treatments was recorded. The mortality results were analysed according to Colby. The synergistic activity of Abamectin and various Vitamin E derivatives on Dysdercus cingulatus is illustrated in table 19.

[13] = tested on: Dysdercus cingulatus nymphs; test: Topical application of Abamectin/tocopherol acetone solutions, LD50 (Example 5); format: in vivo; settings: sum of Abamectin and tocopherol; mortality recorded 48 h after applying
Protocol: as §3, with “of Abamectin” for “of Ivermectin”, “of tocopherol, all-rac alpha,” for “of tocopherol”, “an Abamectin” for “an Ivermectin”, “μl). The Dysdercus cingulatus mortality was recorded 48 h after applying the products.” for “μl).”
Log dose-mortality curves were constructed for the Abamectin and the tocopherol treatments. LD50 values based on the sum of Abamectin and tocopherol contents (ng active ingredient(s) per nymph) were calculated.
From the observed LD50 values for Abamectin and tocopherol expected LD50 values for the mixtures were calculated according to Wadley's formula.

[14] = tested on: Spodoptera exiqua larvae; test: Topical application of Emamectin-benzoate/tocopherol acetone solutions, LD50 (Example 9); format: in vivo; settings: topical 1 μl acetone solution; mortality recorded 48 h after applying
Protocol: A range of Emamectin-benzoate and tocopherol, all-rac alpha, solutions with varying concentrations of each compound in acetone was prepared. Mixed solutions of Emamectin-benzoate and tocopherol, all-rac alpha, were also prepared. Larvae of Spodoptera exiqua were treated topically with either an Emamectin-benzoate acetone solution (1 μl), a tocopherol acetone solution (1 μl) or a solution containing both of the two compounds in the ratios 1:1 and 1:3 (1 μl). Log dose-mortality curves were constructed for the Emamectin-benzoate solutions, the tocopherol solutions and the mixtures. […] A comparison was made between the actual observed LD50 and the expected value, based on the Wadley method as described previously.

[15] = tested on: Dysdercus cingulatus nymphs; format: in vivo; settings: 2000 ng applied on each nymph; 24 h after applying
Protocol: A range of Abamectin solutions in acetone was prepared. Similarly, a range of tocopherol, all-rac alpha, solutions in acetone was prepared. Abamectin solution (2 μl), tocopherol solution (2 μl) or both were applied topically on nymphs of Dysdercus cingulatus. Abamectin was applied dorsally while tocopherol was applied ventrally. […] The mortality of the nymphs was recorded 24 h after applying the solutions.

[16] = tested on: larvae of Lucilia cuprina (sheep blowfly)
Text: A mixture of Spinosad and tocopheryl acetate, all-rac alpha, Ph.

[17] = tested on: adult sea lice (Lepeophtheirus salmonis); settings: tested alone at various concentrations
Protocol: Eur. 5th Ed was studied on adult sea lice (Lepeophtheirus salmonis), a fish parasite, in seawater in Petri dishes. Emamectin benzoate and tocopheryl aceate were tested at various concentrations. In addition, mixtures of Emamectin benzoate and tocopheryl aceate, ratio 1:10 based on weight, were tested as well.

[18] = tested on: Tetranychus urticae; test: Spray test of Spinosad and tocopheryl acetate on bean plants (Vicia faba), leaf protection (Example 13); format: in vivo; settings: single active, leaf protection 7 days after mites placed, average of four evaluations
Text: Using the alternative method for determining synergism the effect of each mixture of Spinosad and tocopheryl acetate is compared with the effect of the same rate of each of the active ingredients used alone.

[19] = inactivation of the fleas, mixture: based on the concentration of Selamectin
[20] = 30 ng applied per nymph, after 24 h
[21] = 30 ng applied per nymph, after 48 h
[22] = 100 ng applied per nymph, after 24 h
[23] = 100 ng applied per nymph, after 48 h
[24] = 300 ng applied per nymph, after 24 h
[25] = 300 ng applied per nymph, after 48 h
[26] = tested alone, in the tested dose range

O=C(O)c1cccnc1 [Nicotinic acid]
R (obs mortality/exp mortality) [1]: 1.4

CO[C@H]1C[C@H](O[C@@H]2/C(C)=C/C[C@@H]3C[C@@H](C[C@]4(CC[C@H](C)[C@@H](C5CCCCC5)O4)O3)OC(=O)[C@@H]3C=C(C)/C(=N/O)[C@H]4OC/C(=C\C=C\[C@@H]2C)[C@]43O)O[C@@H](C)[C@@H]1O [Selamectin]
ED50 Adult contact [2, 19]: 24330 ppm
ED50 Larvae contact [3, 19]: 31 ppm
ED50 Larvae systemic [4, 19]: 1.5 ppm

Ivermectin
LFI-50 H. con. [5]: 6.10 ppb
LFI-96 H. con. [5]: 32.12 ppb
LFI-99 H. con. [5]: 40.68 ppb
LFI-50 T. cir. [6]: 6.37 ppb
LFI-96 T. cir. [6]: 12.59 ppb
LFI-99 T. cir. [6]: 17.35 ppb
LFI-50 T. col. [7]: 2.01 ppb
LFI-96 T. col. [7]: 8.63 ppb
LFI-99 T. col. [7]: 10.81 ppb
LT50 ([8]; in total 20,000 ng/nymph applied dorsally, two replicates of ten nymphs): 9.1 h
EC50 ([9]; mobility of the microfilariae, read-out: EC50 value for Ivermectin): 5.8 µM
Mortality (%) for each ingredient [10, 20]: 8%
Mortality (%) for each ingredient [10, 21]: 27%
Mortality (%) for each ingredient [10, 22]: 33%
Mortality (%) for each ingredient [10, 23]: 65%
Mortality (%) for each ingredient [10, 24]: 63%
Mortality (%) for each ingredient [10, 25]: 86%

Cc1c(C)c2c(c(C)c1O)CCC(C)(C(=O)O)O2 (stereo not shown) [Trolox, 6-hydroxy-2,5,7,8-tetramethylchroman-2-carboxylic acid]
R (obs mortality/exp mortality) [11]: 1.3

CO[C@H]1C[C@H](O[C@H]2[C@H](C)O[C@@H](O[C@@H]3/C(C)=C/C[C@@H]4C[C@@H](C[C@]5(C=C[C@H](C)[C@@H](C6CCCCC6)O5)O4)OC(=O)[C@@H]4C=C(C)[C@@H](O)[C@H]5OC/C(=C\C=C\[C@@H]3C)[C@]54O)C[C@@H]2OC)O[C@@H](C)[C@@H]1O [DOR, Doramectin]
LFI-50 H. con. [5]: 2.63 ppb
LFI-96 H. con. [5]: 10.37 ppb
LFI-99 H. con. [5]: 16.30 ppb
LFI-50 T. cir. [6]: 6.12 ppb
LFI-96 T. cir. [6]: 13.14 ppb
LFI-99 T. cir. [6]: 18.52 ppb
LFI-50 T. col. [7]: 2.57 ppb
LFI-96 T. col. [7]: 8.04 ppb
LFI-99 T. col. [7]: 12.22 ppb

Cc1c(C)c2c(c(C)c1O)CC[C@@](C)(CCC[C@H](C)CCC[C@H](C)CCCC(C)C)O2 [(+)alpha-tocopherol]
R (obs mortality/exp mortality) [12]: 1.1
R (obs mortality/exp mortality) [11]: 2.0

Cc1c(C)c2c(c(C)c1O)CCC(C)(CCCC(C)CCCC(C)CCCC(C)C)O2 (racemic) [tocopherol, tocopherol, all-rac alpha]
LD50obs [13]: >20,000 ng tocopherol ng AI(s) per nymph
Mortality during the test period ([8]; 20,000 ng tocopherol per nymph, 24 h test period): did not die
LD50obs [14]: >20000 ng AI(s)/larvae
Mortality (%) for each ingredient [10, 20]: 0%
Mortality (%) for each ingredient [10, 21]: 0%
Mortality (%) for each ingredient [10, 22]: 0%
Mortality (%) for each ingredient [10, 23]: 0%
Mortality (%) for each ingredient [10, 24]: 0%
Mortality (%) for each ingredient [10, 25]: 0%
% Mortality for each ingredient [15]: 0%

CC(=O)Oc1c(C)c(C)c2c(c1C)CCC(C)(CCC[C@H](C)CCC[C@H](C)CCCC(C)C)O2 (mixture of isomers) [tocopheryl acetate]
activity in its own right ([2]; tested alone): did not have any activity
activity in its own right ([3]; tested alone): did not have any activity
feeding inhibition activity [5, 26]: did not have any feeding inhibition activity
feeding inhibition activity [6, 26]: did not have any feeding inhibition activity
feeding inhibition activity [7, 26]: did not have any feeding inhibition activity
activity on the larvae [16]: no activity
effect on mobility of the microfilaria ([9]; alone, in the concentration range tested): did not affect the mobility
activity in its own right [17]: did not have any activity
activity in its own right ([4]; tested alone): did not have any activity
% protection ([18]; 100 g/ha): 15%
% protection ([18]; 300 g/ha): 8.8%

COC(=O)c1cccnc1 [Methyl nicotinate]
R (obs mortality/exp mortality) [1]: 3.0

Cc1c(C)c2c(c(C)c1OC(=O)CCC(=O)O)CC[C@@](C)(CCC[C@H](C)CCC[C@H](C)CCCC(C)C)O2 [(+)alpha-tocopheryl succinate]
R (obs mortality/exp mortality) [12]: 1.3

Cc1c(C)c2c(c(C)c1OC(=O)c1cccnc1)CC[C@@](C)(CCC[C@H](C)CCC[C@H](C)CCCC(C)C)O2 [(+)alpha-tocopheryl nicotinate]
R (obs mortality/exp mortality) [1]: 3.0
R (obs mortality/exp mortality) [12]: 1.2
R (obs mortality/exp mortality) [11]: 3.0

CC(=O)Oc1c(C)c(C)c2c(c1C)CC[C@@](C)(CCC[C@H](C)CCC[C@H](C)CCCC(C)C)O2 [(+)alpha-tocopheryl acetate]
R (obs mortality/exp mortality) [12]: 1.2
R (obs mortality/exp mortality) [11]: 1.9

CCOC(=O)c1cccnc1 [Ethyl nicotinate]
R (obs mortality/exp mortality) [1]: 1.4

O=C(O)c1ccncc1 [Isonicotinic acid]
R (obs mortality/exp mortality) [1]: >2

Cc1cc(O)cc2c1O[C@](C)(CCC[C@H](C)CCC[C@H](C)CCCC(C)C)CC2 [(+)delta-tocopherol]
R (obs mortality/exp mortality) [12]: 1.6

Emamectin-benzoate
LD50obs [14]: 4.30 ng AI(s)/larvae

Spinosad
% protection ([18]; 100 g/ha): 5%
% protection ([18]; 300 g/ha): 5%
